Data as given in patent US20210170033A1, “NOVEL CONJUGATES OF A PHARMACEUTICAL AGENT AND A MOIETY CAPABLE OF BINDING TO A GLUCOSE SENSING PROTEIN” (SANOFI, priority 2017, published 2021).
Where two headings read alike, the source gives them in different places.

How the values were obtained:
hGLUT1 protein = target: T1, hGLUT1 protein (Homo sapiens, UniProt P11166); test: NanoBRET-based GLUT1-binding assay in HEK cells; conditions: for BRET interference signal using Glucose: check of HiBit-tagged GLUT1 HEK cell line, stereoselective signal
T1 construct: fused on or other part: 11-amino-acid HiBiT peptide tag (small part of nanoluciferase) inserted into the first extracellular loop of GLUT1
T1 sequence (P11166 1-492): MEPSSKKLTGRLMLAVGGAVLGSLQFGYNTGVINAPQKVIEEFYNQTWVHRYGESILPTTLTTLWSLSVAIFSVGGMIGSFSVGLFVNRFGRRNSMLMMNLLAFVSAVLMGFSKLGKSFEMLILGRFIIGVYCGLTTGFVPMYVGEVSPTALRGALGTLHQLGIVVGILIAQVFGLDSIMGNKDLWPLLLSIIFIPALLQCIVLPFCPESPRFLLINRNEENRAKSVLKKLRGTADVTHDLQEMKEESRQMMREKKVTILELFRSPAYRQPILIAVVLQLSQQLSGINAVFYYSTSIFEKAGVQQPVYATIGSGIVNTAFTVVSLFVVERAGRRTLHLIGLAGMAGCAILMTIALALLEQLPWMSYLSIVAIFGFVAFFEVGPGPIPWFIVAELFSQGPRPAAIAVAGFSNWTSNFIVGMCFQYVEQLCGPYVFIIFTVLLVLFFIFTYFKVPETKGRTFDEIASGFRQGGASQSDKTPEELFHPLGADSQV
Protocol: 3. NanoBRET-Based GLUT1-Binding Assays in HEK Cells
To measure binding of compounds to the hGLUT1 protein, the newly-developed NanoBRET platform from Promega is used. In this technology binding is measured via Foerster Resonance Energy Transfer. Foerster Resonance Energy Transfer is based on a direct, radiation-free energy transfer from donor to acceptor and can only take place when donor and acceptor are within nm distance. As donor energy the bioluminescence light of nanoluciferase is used, therefore this application is referred to as BRET (Bioluminescence Resonance Energy Transfer). Nanoluciferase is a protein that emits light when the appropriate substrate is available.
Nanoluciferase is attached to GLUT1 via protein complementation using the HiBit protein tagging system (Promega). […] The HiBit peptide tag is used as a landing pad for the so called Large Bit protein that is commercially available from Promega and added to the medium. Large Bit has a high affinity for HiBit tag resulting in protein complementation to a fully-functional nanoluciferase, which is used as energy donor in the NanoBRET assay system.
To obtain a HEK cell line expressing HiBit-tagged GLUT1, cells were transfected with the appropriate construct placed behind the tetracycline-inducible promoter (Flipin T-Rex system from Thermo Fisher, K650001) and a cell line was generated.
As NanoBRET acceptor a GLUT1 inhibitor described by Siebeneicher et al. (Siebeneicher H., Bauser M., Buchmann B., et al. Identification of novel GLUT inhibitors. Bioorganic & Medicinal Chemistry Letters 2016; 26(7):1732-7; compound 53) was reduced to the aminobenzyl derivative and coupled to the fluorophore NanoBRET618 (Promega) and is referred to as “Bayer+NB618”.
For the assay 50 μl with 7500 cells (HiBit-tagged GLUT1 HEK cells) are plated into 384 poly-D-lysine-coated black μClear plates (Greiner) in DMEM (Gibco 61966) medium supplemented with 10% tetracycline-free FCS (PAN P30-3602) and 300 ng/ml doxycycline (Sigma 9891) to induce the induction of the HiBit-tagged GLUT1 protein.
Incubation of Compound and Acceptor Molecule
After getting adherent by overnight incubation at 37° C. and 10% CO2, the medium is replaced by 10 μl imaging medium (1% BSA (Sigma A9576), 5 mM Hepes (Gibco 15630), 0.35 mM Na-bicarbonate (Gibco 11360-039), 1 mM Na-Pyruvate (Gibco 11360) in PBS buffer (Gibco14040)). 5 μl Bayer+NB618 (in imaging medium, final concentration 75 nM) is added and the plates are incubated for 15 minutes statically at room temperature.
A serial dilution of the test compounds is prepared in imaging medium and added in 10 μl to the respective wells. As a positive control for displacement values from wells incubated with 200 mM D-Glucose (Sigma G8769) are used. Plates are incubated for 30 minutes at room temperature without shaking.
Generating Luminescence and Measuring Fluorescence
This detection solution is made in the buffer provided. After addition of the detection reagent, the samples are incubated for 30 minutes without shaking and subsequently the luminescence and fluorescence emissions are measured simultaneously on the PHERAstar FSX (BMG Labtech) using the appropriate dual filter setup. This filter setup is made up of a 450-80 nm band pass filter to measure the donor signal peaking at 460 nm and a long pass filter starting at 610 nm to measure the fluorescence emission of NanoBRET 618, which peaks at 621 nm and continues beyond 700 nm.
From the raw luminescence and fluorescence values, the NanoBRET ratios are calculated, being the ratio of the fluorescence signal divided by the luminescence signal. Mean values are obtained from at least duplicates.
For percentage inhibition results, the mean value of the not-compound-treated cells is set as 0%. The mean BRET value of the cells treated with 200 mM glucose is used for maximal inhibition. All other mean values were calculated to this relation. […]

A2780 cells = test: Deoxy-glucose uptake assay in A2780 cells (14C 2-deoxy-D-glucose transport); assay type: cell-based; conditions: Homo sapiens, 20 min; inhibition of 14C 2-deoxy-D-glucose transport into A2780 cells; 20 min compound incubation; read-out: IC50
Method in brief: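 Radiolabelled 2-deoxy-D-glucose transport over 20 min was scintillation-counted in A2780 cells, grown 48 h, after 20 min compound exposure in KRB. Untreated cells gave the 100% reference, with Cytochalasin B defining background. IC50 values were regressed from triplicate means across 7 or 14 concentrations.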

[1] = tested on: A2780 Human Carcinoma Cells; test: Glucose displacement assay (ATP measurement, CellTiter-Glo); assay type: cell-based; conditions: ATP measurement in A2780 cells, 0.5 μM rotenone
Protocol: 2. Glucose Displacement Assay (ATP Measurement)
30,000 A2780 Human Carcinoma Cells are seeded per well in a Greiner 96-well plate. Cells are expanded and cultured in RPMI 1640 medium+GlutaMAX® with 10% FCS and 11 mM glucose, at 37° C. with 5% CO2. After 44 h, culture media is changed and washed once with PBS to starvation media consisting of RPMI 1640 medium with 1% FCS without glucose for 2 hours. Cells are then washed with KRB buffer, followed by incubation for 20 min at 37° C. of the treatment mix consisting of 60 μL KRB buffer/well and 10 μL of compound or DMSO 10×. 10 μl of rotenone is added to the mix to a final concentration of 0.5 μM. Cell plates are left for 2 min at room temperature. 20 μL of different glucose concentrations are added to the mix—typically 0.1 to 10 mM range—.
Cells are incubated for another 15 min at 37° C., before measuring ATP with the CellTiter-Glo® Assay, under manufacturer's guidance, but without the equilibration step at room temperature for 30 min. In brief, 100 μl of Cell-Titer-Glo® Reagent is added to the wells containing already 100 μl of the previous reaction mix. Plates are mixed for 2 min at 800 rpm, followed by incubation at room temperature for 10 min to stabilize the luminescent signal. Luminescence is then recorded with the Tekan Ultra Evolution reader.

[2] = displacement of Bayer+NB618 (75 nM) from HiBit-tagged GLUT1 HEK cells, mean of measurements done twice in duplo, read-out: IC50
[3] = 1 mM glucose, read-out: IC50 [μM] at 1 mM glucose
[4] = 10 mM glucose, read-out: IC50 [μM] at 10 mM glucose

In the case of O=C[C@H](O)[C@@H](O)[C@H](O)[C@H](O)CO [D-Glucose, reference compound], the IC50 (hGLUT1 protein) is reported as 5330 ± 560 µM and the “BRET interference signal using Glucose” value (hGLUT1 protein) is reported as “decreases BRET”.
For CO[C@H]1O[C@H](CO)[C@@H](O)[C@H](O)[C@H]1OC(=O)c1cc(Cl)c(OCc2cccc(CNC(=O)OC(C)(C)C)c2)c(Cl)c1C [Example 202a], the IC50 (A2780 cells) was 1.8 µM and the IC50 (hGLUT1 protein; [2]) was 4.41 µM.
In the case of C#CCCCn1c(COc2c(Cl)cc(C(=O)O[C@H]3[C@@H](OC)O[C@H](CO)[C@@H](O)[C@@H]3O)c(C)c2Cl)nc2ccccc21 [Example 212], the IC50 (A2780 cells) is reported as 0.1 µM, the IC50 [1, 3] is reported as < 0.12 µM and the IC50 [1, 4] is reported as 0.288 µM. The IC50 (hGLUT1 protein; [2]) was 0.24 µM.
CO[C@H]1O[C@H](CO)[C@@H](O)[C@H](O)[C@H]1NC(=O)c1cc(Cl)c(OCc2nc3ccccc3n2CCCCCCNC(=O)OC(C)(C)C)c(Cl)c1C [Example 305] showed an IC50 (A2780 cells) of 0.1 µM and an IC50 (hGLUT1 protein; [2]) of 2.83 µM.
In the case of COC(=O)[C@H](CCC(=O)NCc1cccc(COc2c(Cl)cc(C(=O)O[C@H]3[C@@H](OC)O[C@H](CO)[C@@H](O)[C@@H]3O)c(C)c2Cl)c1)NC(=O)OC(C)(C)C [Example 306], the IC50 (A2780 cells) is reported as 3 µM, the IC50 [1, 3] is reported as 1.86 µM and the IC50 [1, 4] is reported as 7.95 µM. It also gave an IC50 (hGLUT1 protein; [2]) of 0.19 µM.
Work on C#CCCCCCn1c(COc2c(Cl)cc(C(=O)O[C@H]3[C@@H](OC)O[C@H](CO)[C@@H](O)[C@@H]3O)c(C)c2Cl)nc2ccccc21 [Example 320] yielded an IC50 (A2780 cells) of 0.02 µM, an IC50 [1, 3] of 0.51 µM and an IC50 [1, 4] of 1.13 µM. The IC50 (hGLUT1 protein; [2]) was 0.22 µM.
C#CCCCn1c(COc2cc(OC)c(C(=O)N[C@H]3[C@@H](OC)O[C@H](CO)[C@@H](O)[C@@H]3O)cc2Cl)nc2ccccc21 [Example 328] was tested, and the IC50 (A2780 cells) was 1.6 µM, the IC50 [1, 3] was 0.56 µM and the IC50 [1, 4] was > 33 µM. The IC50 (hGLUT1 protein; [2]) was 13.6 µM.
COc1cc(OCc2ccc3c(c2)nnn3C)c(Cl)cc1C(=O)O[C@H]1[C@@H](OC)O[C@H](CO)[C@@H](O)[C@@H]1O [Example 340] showed an IC50 (A2780 cells) of 0.4 µM, an IC50 [1, 3] of 0.35 µM and an IC50 [1, 4] of 4.55 µM. For the same compound, the IC50 (hGLUT1 protein; [2]) was 9.49 µM.
In the case of C#CCCCn1c(COc2cc(OC)c(C(=O)O[C@@H]3[C@@H](O)[C@@H](OC)O[C@H](CO)[C@H]3O)cc2Cl)nc2ccccc21 [Example 367], the IC50 (A2780 cells) is reported as 3.9 µM and the IC50 (hGLUT1 protein; [2]) is reported as > 30 µM.
COC(=O)/C=C/c1ccc(COc2cc(OC)c(C(=O)N[C@H]3[C@@H](OC)O[C@H](CO)[C@@H](O)[C@@H]3O)cc2Cl)cc1 [Example 370] showed an IC50 (A2780 cells) of 0.4 µM and an IC50 (hGLUT1 protein; [2]) of 6.98 µM.
Work on COc1cc(OCc2cccc(OCCCC(=O)OC(C)(C)C)c2)c(Cl)cc1C(=O)N[C@H]1[C@@H](OC)O[C@H](CO)[C@@H](O)[C@@H]1O [Example 393] yielded an IC50 (A2780 cells) of 0.9 µM and an IC50 (hGLUT1 protein; [2]) of 17.2 µM.
In the case of COc1cc(OCc2cccc(NC(=O)OC(C)(C)C)c2)c(Cl)cc1C(=O)N[C@H]1[C@H](OC)O[C@H](CO)[C@@H](O)[C@@H]1O [Example 415], the IC50 (A2780 cells) is reported as 0.7 µM, the IC50 [1, 3] is reported as 3.07 µM and the IC50 [1, 4] is reported as 9.21 µM. It also gave an IC50 (hGLUT1 protein; [2]) of 8.3 µM.
In the case of COC(=O)c1ccn2cc(COc3cc(OC)c(C(=O)N[C@H]4[C@@H](OC)O[C@H](CO)[C@@H](O)[C@@H]4O)cc3Cl)nc2c1 [Example 416], the IC50 [1, 3] is reported as 1.64 µM, the IC50 [1, 4] is reported as 22.4 µM and the IC50 (hGLUT1 protein; [2]) is reported as 9.77 µM.
COC(=O)[C@@H](CCCCNC(=O)CCCCCNC(=O)CCCCCCCCC(=O)Nc1cccc(COc2cc(OC)c(C(=O)N[C@H]3[C@@H](OC)O[C@H](CO)[C@@H](O)[C@@H]3O)cc2Cl)c1)NC(=O)OC(C)(C)C [Example 472] gave an IC50 (A2780 cells) of 1.6 µM, an IC50 [1, 3] of 5.9 µM and an IC50 [1, 4] of 15.6 µM.
O=C[C@@H](O)[C@H](O)[C@@H](O)[C@@H](O)CO [L-Glucose, reference compound] was tested, and the “BRET interference signal using Glucose” value (hGLUT1 protein) was “no effect on BRET”.
